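Cells were grown in 96-well plates and exposed to each compound for 48 hours at five concentrations; endpoints were interpolated linearly between bracketing concentrations, or set to the highest concentration if not reached. Here, GI50 denotes the concentration required for 50% inhibition of growth.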 Activity calls are given as the source filed them. Cut-off read from the data, not from the text of the source: active = GI50 up to about 1.1 µM and inactive = higher.
Experiments:
Test in all cases: NCI-60 cell line screen, 48 h
LXFL 529 = test system: LXFL 529
OVCAR-3 = test system: OVCAR-3
M14 = test system: M14
SN12C = test system: SN12C
DMS-273 = test system: DMS-273
SK-MEL-2 = test system: SK-MEL-2
786-0 = test system: 786-0
UACC-257 = test system: UACC-257
OVCAR-8 = test system: OVCAR-8
UO-31 = test system: UO-31
HCT-15 = test system: HCT-15
DMS-114 = test system: DMS-114
RXF 393 = test system: RXF 393
ACHN = test system: ACHN
OVCAR-4 = test system: OVCAR-4
HOP-18 = test system: HOP-18
KM-20L2 = test system: KM-20L2
DLD-1 = test system: DLD-1
HCT-116 = test system: HCT-116
KM12 = test system: KM12
SF-268 = test system: SF-268
A549 = test system: A549
MOLT-4 = test system: MOLT-4
SK-MEL-28 = test system: SK-MEL-28
SF-539 = test system: SF-539
HT-29 = test system: HT-29
SK-OV-3 = test system: SK-OV-3
CCRF-CEM = test system: CCRF-CEM
SNB-78 = test system: SNB-78
SNB-75 = test system: SNB-75
HCC 2998 = test system: HCC 2998
SNB-19 = test system: SNB-19
IGROV-1 = test system: IGROV-1
SF-295 = test system: SF-295
U-251 = test system: U-251
CAKI-1 = test system: CAKI-1
RXF 631 = test system: RXF 631
TK-10 = test system: TK-10
XF498 = test system: XF498
LOX IMVI = test system: LOX IMVI
UACC-62 = test system: UACC-62
OVCAR-5 = test system: OVCAR-5
HOP-62 = test system: HOP-62
K562 = test system: K562
SW-620 = test system: SW-620
M19-MEL = test system: M19-MEL
A498 = test system: A498
NCI-H460 = test system: NCI-H460
Malme-3M = test system: Malme-3M
NCI-H23 = test system: NCI-H23
RPMI-8226 = test system: RPMI-8226
COLO 205 = test system: COLO 205
EKVX = test system: EKVX
SK-MEL-5 = test system: SK-MEL-5
NCI-H226 = test system: NCI-H226
HL-60 = test system: HL-60
SR = test system: SR
HOP-92 = test system: HOP-92
NCI-H522 = test system: NCI-H522

SMILES: CCN(C1=CC(=O)NC2CCCCN12)c1ccccc1 (stereo unspecified)
- GI50 (LXFL 529): > 100 µM (inactive)
- GI50 (OVCAR-3): > 100 µM (inactive)
- GI50 (M14): > 100 µM (inactive)
- GI50 (SN12C): > 100 µM (inactive)
- GI50 (DMS-273): > 100 µM (inactive)
- GI50 (SK-MEL-2): > 100 µM (inactive)
- GI50 (786-0): > 100 µM (inactive)
- GI50 (UACC-257): > 100 µM (inactive)
- GI50 (OVCAR-8): > 100 µM (inactive)
- GI50 (UO-31): > 10 µM (inactive)
- GI50 (HCT-15): > 100 µM
- GI50 (DMS-114): > 100 µM (inactive)
- GI50 (RXF 393): > 100 µM (inactive)
- GI50 (ACHN): > 100 µM (inactive)
- GI50 (OVCAR-4): > 100 µM (inactive)
- GI50 (HOP-18): > 100 µM (inactive)
- GI50 (KM-20L2): > 100 µM (inactive)
- GI50 (DLD-1): > 100 µM (inactive)
- GI50 (HCT-116): > 100 µM (inactive)
- GI50 (KM12): > 100 µM (inactive)
- GI50 (SF-268): > 100 µM (inactive)
- GI50 (A549): > 100 µM (inactive)
- GI50 (MOLT-4): > 100 µM (inactive)
- GI50 (SK-MEL-28): > 100 µM (inactive)
- GI50 (SF-539): > 100 µM (inactive)
- GI50 (HT-29): > 100 µM (inactive)
- GI50 (SK-OV-3): > 100 µM (inactive)
- GI50 (CCRF-CEM): > 100 µM (inactive)
- GI50 (SNB-78): > 100 µM (inactive)
- GI50 (SNB-75): > 100 µM (inactive)
- GI50 (HCC 2998): > 100 µM (inactive)
- GI50 (SNB-19): > 100 µM (inactive)
- GI50 (IGROV-1): > 100 µM (inactive)
- GI50 (SF-295): > 100 µM (inactive)
- GI50 (U-251): > 100 µM (inactive)
- GI50 (CAKI-1): > 100 µM (inactive)
- GI50 (RXF 631): > 100 µM (inactive)
- GI50 (TK-10): > 100 µM (inactive)
- GI50 (XF498): > 100 µM (inactive)
- GI50 (LOX IMVI): > 100 µM (inactive)
- GI50 (UACC-62): > 100 µM (inactive)
- GI50 (OVCAR-5): > 100 µM (inactive)
- GI50 (HOP-62): > 100 µM (inactive)
- GI50 (K562): > 100 µM (inactive)
- GI50 (SW-620): > 100 µM (inactive)
- GI50 (M19-MEL): > 100 µM (inactive)
- GI50 (A498): > 100 µM (inactive)
- GI50 (NCI-H460): > 100 µM (inactive)
- GI50 (Malme-3M): > 100 µM (inactive)
- GI50 (NCI-H23): > 100 µM (inactive)
- GI50 (RPMI-8226): > 100 µM (inactive)
- GI50 (COLO 205): > 100 µM (inactive)
- GI50 (EKVX): > 100 µM (inactive)
- GI50 (SK-MEL-5): > 100 µM (inactive)

SMILES: CC(=O)C1=CCC2c3[nH]c4ccccc4c3CCN2C1 (stereo unspecified)
- GI50 (NCI-H226): > 100 µM (inactive)
- GI50 (LXFL 529): 66.8 µM (inactive)
- GI50 (OVCAR-3): 31.7 µM (inactive)
- GI50 (M14): > 100 µM (inactive)
- GI50 (SN12C): 68.4 µM (inactive)
- GI50 (DMS-273): 34.5 µM (inactive)
- GI50 (HL-60): 45.3 µM (inactive)
- GI50 (SK-MEL-2): 66.4 µM (inactive)
- GI50 (786-0): 35.1 µM (inactive)
- GI50 (UACC-257): > 100 µM (inactive)
- GI50 (OVCAR-8): 47.6 µM (inactive)
- GI50 (SR): 31.8 µM (inactive)
- GI50 (UO-31): > 100 µM (inactive)
- GI50 (HCT-15): 50.8 µM
- GI50 (RXF 393): 35.8 µM (inactive)
- GI50 (ACHN): 78 µM (inactive)
- GI50 (OVCAR-4): 35.6 µM (inactive)
- GI50 (HOP-18): > 100 µM (inactive)
- GI50 (KM-20L2): 21 µM (inactive)
- GI50 (HOP-92): 36.3 µM (inactive)
- GI50 (DLD-1): 70.3 µM (inactive)
- GI50 (HCT-116): 45 µM (inactive)
- GI50 (KM12): 52.6 µM (inactive)
- GI50 (SF-268): 69.2 µM (inactive)
- GI50 (A549): > 100 µM (inactive)
- GI50 (MOLT-4): 42.1 µM (inactive)
- GI50 (SK-MEL-28): > 100 µM (inactive)
- GI50 (SF-539): 26.6 µM (inactive)
- GI50 (HT-29): 31.3 µM (inactive)
- GI50 (SK-OV-3): 21.6 µM (inactive)
- GI50 (CCRF-CEM): 38.5 µM (inactive)
- GI50 (SNB-78): 32.1 µM (inactive)
- GI50 (SNB-75): 15.1 µM (inactive)
- GI50 (HCC 2998): 55 µM (inactive)
- GI50 (SNB-19): > 100 µM (inactive)
- GI50 (IGROV-1): 61.1 µM (inactive)
- GI50 (SF-295): 98.6 µM (inactive)
- GI50 (U-251): 54.5 µM (inactive)
- GI50 (RXF 631): 45.4 µM (inactive)
- GI50 (TK-10): > 100 µM (inactive)
- GI50 (XF498): 62.5 µM (inactive)
- GI50 (LOX IMVI): 58.7 µM (inactive)
- GI50 (OVCAR-5): > 100 µM (inactive)
- GI50 (HOP-62): > 100 µM (inactive)
- GI50 (K562): 31 µM (inactive)
- GI50 (SW-620): > 100 µM (inactive)
- GI50 (M19-MEL): > 100 µM (inactive)
- GI50 (A498): > 100 µM (inactive)
- GI50 (NCI-H460): 45 µM (inactive)
- GI50 (Malme-3M): 72.1 µM (inactive)
- GI50 (NCI-H23): 46.7 µM (inactive)
- GI50 (COLO 205): > 100 µM (inactive)
- GI50 (EKVX): 67.1 µM (inactive)
- GI50 (NCI-H522): 24.7 µM (inactive)
- GI50 (SK-MEL-5): 50 µM (inactive)

SMILES: C[C@H](OCc1ccccc1)C(=O)N1CCS(=O)(=O)N2CCC[C@@H]2C1=O
- GI50 (NCI-H226): > 100 µM (inactive)
- GI50 (LXFL 529): > 100 µM (inactive)
- GI50 (OVCAR-3): > 100 µM (inactive)
- GI50 (M14): > 100 µM (inactive)
- GI50 (SN12C): > 100 µM (inactive)
- GI50 (HL-60): > 100 µM (inactive)
- GI50 (786-0): > 100 µM (inactive)
- GI50 (UACC-257): > 100 µM (inactive)
- GI50 (OVCAR-8): > 100 µM (inactive)
- GI50 (SR): > 100 µM (inactive)
- GI50 (UO-31): > 100 µM (inactive)
- GI50 (HCT-15): > 100 µM
- GI50 (DMS-114): > 100 µM (inactive)
- GI50 (RXF 393): > 100 µM (inactive)
- GI50 (ACHN): > 100 µM (inactive)
- GI50 (OVCAR-4): > 100 µM (inactive)
- GI50 (HOP-18): > 100 µM (inactive)
- GI50 (KM-20L2): > 100 µM (inactive)
- GI50 (HOP-92): > 100 µM (inactive)
- GI50 (DLD-1): > 100 µM (inactive)
- GI50 (HCT-116): > 100 µM (inactive)
- GI50 (KM12): > 100 µM (inactive)
- GI50 (SF-268): > 100 µM (inactive)
- GI50 (A549): > 100 µM (inactive)
- GI50 (MOLT-4): > 100 µM (inactive)
- GI50 (SK-MEL-28): > 100 µM (inactive)
- GI50 (SF-539): > 100 µM (inactive)
- GI50 (HT-29): > 100 µM (inactive)
- GI50 (SK-OV-3): > 100 µM (inactive)
- GI50 (CCRF-CEM): > 100 µM (inactive)
- GI50 (SNB-78): > 100 µM (inactive)
- GI50 (SNB-75): > 100 µM (inactive)
- GI50 (HCC 2998): > 100 µM (inactive)
- GI50 (SNB-19): > 100 µM (inactive)
- GI50 (IGROV-1): > 100 µM (inactive)
- GI50 (SF-295): > 100 µM (inactive)
- GI50 (U-251): > 100 µM (inactive)
- GI50 (CAKI-1): > 100 µM (inactive)
- GI50 (RXF 631): > 100 µM (inactive)
- GI50 (TK-10): > 100 µM (inactive)
- GI50 (XF498): 0.746 µM (active)
- GI50 (LOX IMVI): > 100 µM (inactive)
- GI50 (UACC-62): > 100 µM (inactive)
- GI50 (OVCAR-5): > 100 µM (inactive)
- GI50 (HOP-62): > 100 µM (inactive)
- GI50 (K562): > 100 µM (inactive)
- GI50 (SW-620): > 100 µM (inactive)
- GI50 (M19-MEL): > 100 µM (inactive)
- GI50 (A498): > 100 µM (inactive)
- GI50 (NCI-H460): > 100 µM (inactive)
- GI50 (Malme-3M): > 100 µM (inactive)
- GI50 (NCI-H23): > 100 µM (inactive)
- GI50 (RPMI-8226): > 100 µM (inactive)
- GI50 (COLO 205): > 100 µM (inactive)
- GI50 (EKVX): > 100 µM (inactive)
- GI50 (NCI-H522): > 100 µM (inactive)
- GI50 (SK-MEL-5): > 100 µM (inactive)

Source: ChEMBL document CHEMBL1201862, “PubChem BioAssay data set” (2004)
